Reference: US10092566B2, “Composition for controlling a gut immunity and use thereof” (SEOUL NATIONAL UNIVERSITY R&DB FOUNDATION, priority 2013, dated 2018)

Tested on: DUOX
Experiment: In vivo ROS detection in gut epithelia (HOCl-specific R19S staining, ratio of ROS-positive guts)
Design: species or system Drosophila
Text: R19S, a recently developed HOCl-specific rhodamine-based dye, was used in this experiment (Chen et al., Chem Commun (Camb) 47, pp. 4373-4375, 2011). R19S was purchased from Futurechem (Seoul, South Korea). […]
Furthermore, to measure the basal level of ROS in germ-free animals, Drosophila monoassociated with each bacterium (C. intestini, A. pomorum, L. plantarum, G. morbifer, G. morbifer-carA::Tn5, L. brevis, or L. brevisΔcarA) were experimented with as disclosed above. A 5% sucrose solution containing 10 μM of R19S was orally administered to the monoassociated Drosophila (13 days old) for 90 minutes.
Following the R19S ingestion, the midguts were dissected and fixed with 4% formaldehyde. The level of HOCl (ROS level) was visualized by LSM700 confocal microscopy (Carl Zeiss).
For all of the experiments, R19S-positive guts in each animal group (n=approx. 20) were measured by each independent experiment, and data was indicated by at least three repeated and independent experiments. The number of R19S-positive guts in regard to the total numbers of gut samples was indicated as the ratio of ROS-positive guts.

SMILES | ROS-inducing ability / DUOX activation (nucleobases and pyrimidine analogs, 20 nM each, ingestion for 15 minutes) | DUOX-dependent ROS after coingestion of uracil with N-acetylcysteine (uracil 20 nM, 1.5 hours, plus N-acetylcysteine)
O=c1[nH]cc(F)c(=O)[nH]1 [5-fluorouracil, reference compound] | only uracil is capable of activating DUOX | 
CC(=O)N[C@@H](CS)C(=O)O [N-acetylcysteine, reference compound] |  | could not be detected
